According to US8524702B2, “Substituted benzoazepines as toll-like receptor modulators” (VentiRx Pharmaceuticals, Inc., priority 2009, dated 2013):
pEC50: −log10 of the molar value.

Experiments:
Format in all cases: cell-based
TLR8 [1] = biological target: T1, TLR8 (Homo sapiens, UniProt Q9NR97); assay: TLR8 activity, MC50 values (procedure only by reference to Gorden et al. and Zhu et al.); conditions: assay format not given
T1 sequence (Q9NR97 27-1041): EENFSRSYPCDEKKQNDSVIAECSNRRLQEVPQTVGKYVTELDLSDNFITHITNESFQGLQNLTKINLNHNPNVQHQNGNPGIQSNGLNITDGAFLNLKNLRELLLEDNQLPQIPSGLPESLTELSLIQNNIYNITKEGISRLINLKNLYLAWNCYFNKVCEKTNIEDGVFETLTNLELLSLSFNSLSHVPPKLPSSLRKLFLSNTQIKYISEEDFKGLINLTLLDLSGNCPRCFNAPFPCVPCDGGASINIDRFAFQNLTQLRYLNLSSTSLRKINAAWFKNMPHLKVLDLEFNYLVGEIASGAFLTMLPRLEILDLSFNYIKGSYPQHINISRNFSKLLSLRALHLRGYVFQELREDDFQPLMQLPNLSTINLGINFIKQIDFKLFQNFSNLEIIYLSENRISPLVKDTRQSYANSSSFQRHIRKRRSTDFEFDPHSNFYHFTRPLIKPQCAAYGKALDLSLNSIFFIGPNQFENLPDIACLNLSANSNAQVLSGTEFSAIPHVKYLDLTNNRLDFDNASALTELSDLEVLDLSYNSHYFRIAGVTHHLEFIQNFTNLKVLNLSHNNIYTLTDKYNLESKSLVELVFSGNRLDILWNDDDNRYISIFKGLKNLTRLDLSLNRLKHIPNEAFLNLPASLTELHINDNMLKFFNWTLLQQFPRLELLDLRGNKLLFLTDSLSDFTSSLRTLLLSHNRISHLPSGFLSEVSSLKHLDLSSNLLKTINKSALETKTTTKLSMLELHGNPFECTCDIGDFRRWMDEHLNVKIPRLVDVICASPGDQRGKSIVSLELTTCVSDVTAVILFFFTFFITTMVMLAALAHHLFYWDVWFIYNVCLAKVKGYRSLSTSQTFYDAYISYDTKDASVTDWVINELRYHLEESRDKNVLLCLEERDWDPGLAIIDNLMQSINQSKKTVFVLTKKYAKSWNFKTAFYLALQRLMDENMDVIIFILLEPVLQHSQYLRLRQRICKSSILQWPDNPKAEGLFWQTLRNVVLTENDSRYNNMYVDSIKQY
From the text: (§1) Activity of the compounds can be assessed according to procedures described in, e.g., Gorden et al., Journal of Immunology 177, pp. 8164-8170 (2006) and Zhu et al., Molecular Immunology, vol. 45 (11), pp. 3238-3242 (2008).
MC50 values for TLR8 activity are, for example, as shown below: […]

TLR8 [2] = biological target: T1, TLR8; assay: PBMC assay for TLR8 (TNFα in supernatants by ELISA); design: Peripheral blood mononuclear cells (PBMCs) from human blood were isolated; endogenous in cells; host or cells: human PBMCs; conditions: human PBMCs incubated with compound overnight, MC50 = concentration at which 50% of the maximum induction is seen
Method: (§2) Peripheral blood mononuclear cells (PBMCs) from human blood were isolated using BD Vacutainer Cell Preparation Tubes with sodium citrate. Cells were incubated with compound overnight. TLR8 activity was assayed by measuring the amount of TNFα in supernatants by ELISA. TLR7 activity was assayed by measuring the amount of IFNα in supernatants by ELISA (R&D Systems). […] The results of this assay are shown below in Tables 2 and 3.
(§3) MC50 numbers are represented as factors of ten, for example, + indicates an MC50 value of ×10^4, or a value in the tens of thousands of nanomolar (nM range); ++ indicates an MC50 value of ×10^3, or a value in the thousands; +++ indicates an MC50 value of ×10^2, or a value in the hundreds; and ++++ indicates an MC50 value of ×10^1 or 10°, or a value in the tens or ones.

TLR7 [3] = biological target: T2, TLR7 (Homo sapiens, UniProt Q9NYK1); assay: PBMC assay for TLR7 (IFNα in supernatants by ELISA); design: Peripheral blood mononuclear cells (PBMCs) from human blood were isolated; endogenous in cells; host or cells: human PBMCs; conditions: human PBMCs incubated with compound overnight, MC50 = concentration at which 50% of the maximum induction is seen
T2 sequence (Q9NYK1 27-1049): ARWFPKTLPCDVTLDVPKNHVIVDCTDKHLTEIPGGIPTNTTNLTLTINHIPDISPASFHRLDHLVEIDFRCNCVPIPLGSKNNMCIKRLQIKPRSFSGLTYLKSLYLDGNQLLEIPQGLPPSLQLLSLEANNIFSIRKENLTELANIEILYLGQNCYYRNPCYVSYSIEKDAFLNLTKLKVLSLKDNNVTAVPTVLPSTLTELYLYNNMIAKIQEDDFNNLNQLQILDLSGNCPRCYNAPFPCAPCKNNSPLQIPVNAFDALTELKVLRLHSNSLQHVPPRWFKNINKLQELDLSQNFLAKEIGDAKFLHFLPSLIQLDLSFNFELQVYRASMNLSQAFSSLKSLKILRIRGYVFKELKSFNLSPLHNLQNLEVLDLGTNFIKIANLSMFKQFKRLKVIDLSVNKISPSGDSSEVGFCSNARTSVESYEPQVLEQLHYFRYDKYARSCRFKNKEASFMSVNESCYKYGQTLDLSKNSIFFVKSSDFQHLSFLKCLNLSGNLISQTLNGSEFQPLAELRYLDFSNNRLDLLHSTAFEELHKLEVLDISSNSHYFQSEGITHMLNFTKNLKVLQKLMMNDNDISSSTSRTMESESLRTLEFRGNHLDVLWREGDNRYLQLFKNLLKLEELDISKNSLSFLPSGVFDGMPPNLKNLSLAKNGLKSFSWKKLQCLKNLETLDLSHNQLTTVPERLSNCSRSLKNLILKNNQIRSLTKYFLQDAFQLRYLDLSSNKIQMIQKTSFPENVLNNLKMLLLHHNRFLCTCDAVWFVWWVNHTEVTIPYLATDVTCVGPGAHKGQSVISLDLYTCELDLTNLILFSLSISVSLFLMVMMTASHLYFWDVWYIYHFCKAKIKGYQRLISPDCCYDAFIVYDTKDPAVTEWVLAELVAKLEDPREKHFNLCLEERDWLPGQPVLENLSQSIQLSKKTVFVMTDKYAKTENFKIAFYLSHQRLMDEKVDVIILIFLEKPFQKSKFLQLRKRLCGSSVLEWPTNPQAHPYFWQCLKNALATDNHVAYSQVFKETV
Method: as §2, §3

TLR7 [4] = biological target: T2, TLR7; assay: TLR7 activity, MC50 values (procedure only by reference to Gorden et al. and Zhu et al.); conditions: assay format not given
From the text: as §1
MC50 values for TLR7 activity are, for example, as shown below: […]

pEC50 (TLR8 [1])	pEC50 (TLR8 [2])	pEC50 (TLR7 [3])	pEC50 (TLR7 [4])	Compound
	7.00 to 9.00	6.00 to 7.00	6.13	CCCN(CCC)C(=O)C1=Cc2ccc(-c3cncnc3)cc2N=C(N)C1 [Compound 135, (1E,4E)-2-amino-N,N-dipropyl-8-(pyrimidin-5-yl)-3H-benzo[b]azepine-4-carboxamide]
	7.00 to 9.00	5.00 to 6.00		CCCN(CCCO)C(=O)C1=Cc2ccc(-c3ccc(C(=O)N4CC[C@H](O)C4)cc3)cc2N=C(N)C1 [Compound 182, (1E,4E)-2-amino-N-(3-hydroxypropyl)-8-(4-((S)-3-hydroxypyrrolidine-1-carbonyl)phenyl)-N-propyl-3H-benzo[b]azepine-4-carboxamide]
6.71	6.00 to 7.00	4.00 to 5.00		CCCN(CCCO)C(=O)C1=Cc2ccc(-c3ccc(C(=O)OCC)cc3)cc2N=C(N)C1 [Compound 190, Ethyl 4-((1E,4E)-2-amino-4-((3-hydroxypropyl)(propyl)carbamoyl)-3H-benzo[b]azepin-8-yl)benzoate]
	6.00 to 7.00	5.00 to 6.00		CCCN(CCC)C(=O)C1=Cc2ccc(-c3cccc(O)c3)cc2N=C(N)C1 [Compound 194, (1E,4E)-2-amino-8-(3-hydroxyphenyl)-N,N-dipropyl-3H-benzo[b]azepine-4-carboxamide]
	6.00 to 7.00	6.00 to 7.00		CCCN(CCC)C(=O)C1=Cc2ccc(-c3ccc(O)cc3)cc2N=C(N)C1 [Compound 195, (1E,4E)-2-amino-8-(4-hydroxyphenyl)-N,N-dipropyl-3H-benzo[b]azepine-4-carboxamide]
	6.00 to 7.00	5.00 to 6.00		CCCN(CCC)C(=O)C1=Cc2ccc(-c3ccc(C(=O)OC)cc3)cc2N=C(N)C1 [Compound 206, Methyl 4-((1E,4E)-2-amino-4-(dipropylcarbamoyl)-3H-benzo[b]azepin-8-yl)benzoate]
	6.00 to 7.00	5.00 to 6.00		CCCN(CCC)C(=O)C1=Cc2ccc(-c3ccc(C(=O)OC)nc3)cc2N=C(N)C1 [Compound 212, Methyl 5-((1E,4E)-2-amino-4-(dipropylcarbamoyl)-3H-benzo[b]azepin-8-yl)picolinate]

More lines, now with the values behind:

Compound	pEC50 (TLR8 [1])	pEC50 (TLR8 [2])	pEC50 (TLR7 [3])	pEC50 (TLR7 [4])
CCCN(C[C@@H](C)O)C(=O)C1=Cc2ccc(-c3ccc(C(=O)N4CCCC4)cc3)cc2N=C(N)C1 (single isomer, unassigned) [Compound 106]	8.00	7.00 to 9.00	5.00 to 6.00	
CCCN(CCC)C(=O)C1=Cc2ccc(-c3ccc(C(=O)N(C)C)cc3)cc2N=C(N)C1 [Compound 124, (1E,4E)-2-amino-8-(4-(dimethylcarbamoyl)phenyl)-N,N-dipropyl-3H-benzo[b]azepine-4-carboxamide]	6.98	6.00 to 7.00	5.00 to 6.00	
CCCN(CCC)C(=O)C1=Cc2ccc(-c3ccc(C(=O)N4CC[C@@H](O)C4)cc3)cc2N=C(N)C1 [Compound 127, (1E,4E)-2-amino-8-(4-((R)-3-hydroxypyrrolidine-1-carbonyl)phenyl)-N,N-dipropyl-3H-benzo[b]azepine-4-carboxamide]	8.40	7.00 to 9.00	5.00 to 6.00	
CCOC(=O)C1=Cc2ccc(-c3ccncc3)cc2N=C(N)C1 [Compound 143, (1E,4E)-ethyl 2-amino-8-(pyridin-4-yl)-3H-benzo[b]azepine-4-carboxylate]	7.35	7.00 to 9.00		
CCOC(=O)C1=Cc2ccc(-c3ccc(C(=O)N(C)C)cc3)cc2N=C(N)C1 [Compound 154, (1E,4E)-ethyl 2-amino-8-(4-(dimethylcarbamoyl)phenyl)-3H-benzo[b]azepine-4-carboxylate]	6.94	6.00 to 7.00		
CCCN(CC(N)=O)C(=O)C1=Cc2ccc(-c3ccc(C(=O)N4CCCC4)cc3)cc2N=C(N)C1 [Compound 178, (1E,4E)-2-amino-N-(2-amino-2-oxoethyl)-N-propyl-8-(4-(pyrrolidine-1-carbonyl)phenyl)-3H-benzo[b]azepine-4-carboxamide]		6.00 to 7.00	6.00 to 7.00	6.12
CCCN(CCC)C(=O)C1=Cc2ccc(-c3ccccc3C(=O)OCC)cc2N=C(N)C1 [Compound 203, Ethyl 2-((1E,4E)-2-amino-4-(dipropylcarbamoyl)-3H-benzo[b]azepin-8-yl)benzoate]		6.00 to 7.00	5.00 to 6.00	
CCCN(CCCO)C(=O)C1=Cc2ccc(-c3ccccc3C(=O)OCC)cc2N=C(N)C1 [Compound 204, Ethyl 2-((1E,4E)-2-amino-4-((3-hydroxypropyl)(propyl)carbamoyl)-3H-benzo[b]azepin-8-yl)benzoate]		6.00 to 7.00	5.00 to 6.00	
CCCN(CCC)C(=O)C1=Cc2ccc(-c3ccc(C(=O)OCOCC)cc3)cc2N=C(N)C1 [Compound 207, Ethoxymethyl 4-((1E,4E)-2-amino-4-(dipropylcarbamoyl)-3H-benzo[b]azepin-8-yl)benzoate]		5.00 to 6.00	5.00 to 6.00	
CCCN(CCC)C(=O)C1=Cc2ccc(-c3ccc(C(=O)OCC)c(F)c3)cc2N=C(N)C1 [Compound 210, Ethyl 4-((1E,4E)-2-amino-4-(dipropylcarbamoyl)-3H-benzo[b]azepin-8-yl)-2-fluorobenzoate]		6.00 to 7.00	5.00 to 6.00	
CCCN(CCCO)C(=O)C1=Cc2ccc(-c3ccc(C(=O)OCC)c(F)c3)cc2N=C(N)C1 [Compound 211, Ethyl 4-((1E,4E)-2-amino-4-((3-hydroxypropyl)(propyl)carbamoyl)-3H-benzo[b]azepin-8-yl)-2-fluorobenzoate]		6.00 to 7.00	5.00 to 6.00	
CCCN(CCCO)C(=O)C1=Cc2ccc(-c3ccc(/C=C/C(=O)OCC)cc3)cc2N=C(N)C1 [Compound 220, (E)-Ethyl 3-(4-((1E,4E)-2-amino-4-((3-hydroxypropyl)(propyl)carbamoyl)-3H-benzo[b]azepin-8-yl)phenyl)acrylate]		6.00 to 7.00	4.00 to 5.00	
